According to patent publication US7022719B2, “Preventing and reversing the formation of advance glycosylation endproducts” (Alteon, Inc., priority 1995, dated 2006):
Where two headings read alike, the source gives them in different places.

Key:
[1] = system: AGE-BSA crosslinked to collagen; assay: Cross-link Breaking Assay (sandwich enzyme immunoassay); assay type: biochemical
Method: The present invention also involves a novel sandwich enzyme immunoassay used to ascertain the ability of test compounds to “break” or reverse already formed advanced glycosylation endproducts by detecting the breaking of AGE (Advanced glycosylation endproduct) moieties from AGE-crosslinked protein. This assay comprises: • a) incubation of AGE-modified bovine serum albumin (AGE BSA) on collagen-coated wells of microtiter plates for a period of 2–6 hours' at a temperature of 37° C.; • b) washing of the wells with PBS-Tween; • c) application of the test compounds to the washed wells of step b; • d) incubation of the test compounds applied to the washed wells for an additional 12–24 hours at a temperature of about 37° C.; and • e) detection of the AGE-breaking using an antibody raised against AGE-ribonuclease or cross-link breaking with an antibody against BSA.
In order to ascertain the ability of the compounds of the instant invention to “break” or reverse already formed advanced glycosylation endproducts, a novel sandwich enzyme immunoassay was developed which detects breaking of AGE (Advanced glycosylation endproduct) moieties from AGE-crosslinked protein. The assay utilizes collagen-coated 96 well microtiter plates that are obtained commercially. […] Following an incubation period of 16 hours (37° C.) cross-link-breaking is detected using an antibody raised against AGE-ribonuclease or with an antibody against BSA. […] Details of the assay are as follows:
Methods Preparation of Solutions and Buffers • 1. AGE-BSA stock solutions were prepared as follows. Sodium phosphate buffer (0.4 M) was prepared by dissolving 6 grams of monobasic sodium phosphate in 100 ml of distilled water, 7 grams of dibasic sodium phosphate (0.4 M) in 100 ml of distilled water and adjusting the pH of the dibasic solution to 7.4 with the monobasic solution. Sodium azide (0.02 grams) was added per 100 ml volume to inhibit bacterial growth. The BSA solution was prepared as follows: 400 mg of Type V BSA (bovine serum albumin) was added for each ml of sodium phosphate buffer (above). A 400 mM glucose solution was prepared by dissolving 7.2 grams of dextrose in 100 ml of sodium phosphate buffer (above). The BSA and glucose solutions were mixed 1:1 and incubated at 37° C. for 12 weeks. The pH of the incubation mixture was monitored weekly and adjusted to pH 7.4 if necessary. After 12 weeks, the AGE-BSA solution was dialyzed against PBS for 48 hours with four buffer changes, each at a 1:500 ratio of solution to dialysis buffer. Protein concentration was determined by the micro-Lowry method. The AGE-BSA stock solution was aliquoted and stored at −20° C. […] Working solutions for crosslinking and breaking studies were prepared as follows. Test compounds were dissolved in PBS and the pH was adjusted to pH 7.4 if necessary. AGE-BSA stock solution was diluted in PBS to measure maximum crosslinking and in the inhibitor solution for testing inhibitory activity of compounds. The concentration of AGE-BSA necessary to achieve the optimum sensitivity was determined by initial titration of each lot of AGE-BSA. • 3. Wash buffer (“PBS-Tween”) was, prepared as follows. PBS was prepared by dissolving the following salts in one liter of distilled water: NaCl, 8 grams; KC1, 0.2 gram, KH2PO4. […] Tween-20 was added to a final concentration of 0.05% (vol/vol). • 4. Substrates for detection of secondary antibody binding were prepared by diluting the HRP substrate buffer 1:10 in distilled water and mixing with ABTS chromogen 1:50 just prior to use. Assay Procedures • 1. Biocoat plates were blocked with 300 μl of “Superbloc”. Plates were blocked for one hour at room temperature and were washed with PBS-Tween three times with the Dynatech platewasher before addition of test reagents. • 2. Each experiment was set up in the following manner. The first three wells of the Biocoat plate were used for the reagent blank.

[2] = system: cross-linking of glycated bovine serum albumin (AGE-BSA) to rat tail tendon collagen; assay: Cross-linking Inhibition Assay; settings: for IC50: inhibition of AGE-BSA cross-linking to collagen-coated plate
Method: The following method was used to evaluate the ability of the compounds of the present invention to inhibit the cross-linking of glycated bovine serum albumin (AGE-BSA) to the rat tail tendon collagen-coated 96-well plate.
The blocking solution was removed from the wells by, washing the plate twice with PBS-'Tween 20 solution (0.05% Tween 20) using a NUNq-multiprobe or Dynatech ELISA-plate washer. Cross-linking of AGE-BSA (1 to 10 mg per well depending on the batch of AGE-BSA) to rat tail tendon collagen coated plate was performed with and without the testing ‘compound dissolved in PBS buffer at pH 7.4 at the desired concentrations by the, addition of 50 μl each of the AGE-BSA diluted in PBS or in the solution of test compound at 37° C. for 4 hours. Unbrowned BSA in PBS buffer with or without testing compound were added to the separate wells as the blanks. The un-cross-linked AGE-BSA was then removed by washing the wells three times with PBS-Tween buffer. The amount of AGE-BSA cross-linked to the tail tendon collagen-coated plate was then quantitated using a polyclonal antibody raised against AGE-RNase. After a one-hour incubation period, AGE antibody was removed by washing 4 times with PBS-Tween.
The bound AGE antibody was then detected with the addition of horseradish peroxidase-conjugated secondary antibody—goat anti-rabbit immunoglobulin and incubation for 30 minutes. […] The reaction was allowed for an additional 15 minutes and the absorbance was read at 410 nm in a Dynatech plate reader.

[3] = anti-AGE antibody, concentration not given
[4] = anti-BSA antibody, concentration not given
[5] = detection with anti-AGE antibody, read-out: IC50 (mM) Anti-AGE
[6] = detection with anti-BSA antibody, read-out: IC50 (mM) Anti-BSA

Compound: 3-(2-(3′-methoxyphenyl]-2-oxoethyl)-thiazolium bromide
- Breaking Anti-AGE [1]: 22%/44% (10)
- Breaking Anti-BSA [1]: 22%/44% (10)

Compound: Cn1cc[n+](CC(=O)c2cc(C(C)(C)C)c(O)c(C(C)(C)C)c2)c1 [1-methyl-3-(2-(3′,5′-di-tert-butyl-4′-hydroxyphenyl)-2-oxoethyl]-imidazolium bromide]
- Breaking Anti-AGE ([1]; anti-AGE antibody, at 10 mM): 56%
- Breaking Anti-BSA ([1]; anti-BSA antibody, at 10 mM): 38%
- IC50 [2]: 4500 µM

Compound: Cc1cc(C)c(S(=O)(=O)[O-])c(C)c1.Nc1sc(-c2ccc3c(c2)OCCCO3)c[n+]1N [2,3-Diamino-5-(3′,4′-trimethylenedioxyphenyl) thiazolium mesitylene sulfonate]
- Breaking Anti-AGE ([1]; anti-AGE antibody, at 1 mM): 13%
- Breaking Anti-BSA ([1]; anti-BSA antibody, at 1 mM): 42%

Compound: Nc1sc2ccccc2[n+]1N [2,3-diaminio-benzothiazolium mesitylenesulfonate]
- Breaking Anti-AGE ([1]; anti-AGE antibody, at 30 mM): 87%
- Breaking Anti-BSA ([1]; anti-BSA antibody, at 30 mM): 54%
- IC50 [2]: 74.9 µM

Compound: Nc1ccc2c(c1)sc(N)[n+]2CC(=O)c1ccc(Br)cc1.[Br-] [2,6-diamino-3 (2-(4′-bromophenyl)-2-oxoethyl] benzothiazolium bromide]
- Breaking Anti-AGE ([1]; anti-AGE antibody, at 10 mM): 27%
- Breaking Anti-BSA ([1]; anti-BSA antibody, at 10 mM): 44%

Compound: Nc1ccc2c(c1)sc(N)[n+]2CC(=O)c1ccc(F)cc1.[Br-] [2,6-diamino-3 (2-(4′-fluorophenyl-2-oxoethyl]benzothiazolium bromide]
- Breaking Anti-AGE ([1]; anti-AGE antibody, at 10 mM): 24%
- Breaking Anti-BSA ([1]; anti-BSA antibody, at 10 mM): 40%

Compound: COc1ccc(C(=O)C[n+]2c(N)sc3cc(N)ccc32)cc1.[Br-] [2,6-diamino-3 (2-(4′-methoxyphenyl)-2-oxoethyl]benzothiazolium bromide]
- Breaking Anti-AGE ([1]; anti-AGE antibody, at 10 mM): 29%
- Breaking Anti-BSA ([1]; anti-BSA antibody, at 10 mM): 35%

Compound: Cc1c(CCO)sc[n+]1CC(=O)c1ccc2c(c1)OCCO2.[Br-] [3 (2-(1′,4′-benzodioxan-6-yl)-2-oxoethyl]-4-methyl-5-(2′-hydroxyethyl)-thiazolium bromide]
- Breaking Anti-AGE ([1]; anti-AGE antibody, at 3 mM): 11%
- Breaking Anti-BSA ([1]; anti-BSA antibody, at 3 mM): 21%
- Relative Cross-link Inhibition (at 10 mM) [2]: 13%

Compound: CCOC(=O)c1ccc(NC(=O)C[n+]2csc(CCO)c2C)cc1.[Br-] [3-(2-4′-carbethoxyanilino)-2-oxoethyl]-4-methyl-5-(2′-hydroxyethyl)-thiazolium bromide]
- Breaking Anti-AGE ([1]; anti-AGE antibody, at 10 mM): 48%
- Breaking Anti-BSA ([1]; anti-BSA antibody, at 10 mM): 57%
- Relative Cross-link Inhibition [2]: 8.8% (1 mm)

Compound: CCN(CC)c1ccc(C(=O)C[n+]2csc(CCO)c2C)cc1 [3-(2-4′-diethylaminophenyl)-2-oxoethyl]-4-qj. methyl-5-(2′-hydroxyethyl)-thiazolinium bromide]
- IC50 [2]: 2800 µM

Compound: Cc1c(CCO)sc[n+]1CC(=O)Nc1c(C(C)C)cccc1C(C)C.[Br-] [3-(2-(2′,6′-Diisopropylanilino)-2-oxoethyl]-4-methyl-5-(2′-hydroxyethyl)-thiazolium bromide]
- Breaking Anti-AGE ([1]; anti-AGE antibody, at 10 mM): 31%
- Breaking Anti-BSA ([1]; anti-BSA antibody, at 10 mM): 48%
- Relative Cross-link Inhibition (at 10 mM) [2]: 19%

Compound: O=C(C[n+]1ccsc1)c1ccc2c(c1)OCCCO2.[Br-] [3-(2-(3′,4′-trimethylenedioxyphenyl)-2-oxoethyl]-thiazolium bromide]
- Breaking Anti-AGE ([1]; anti-AGE antibody, at 10 mM): 17%
- Breaking Anti-BSA ([1]; anti-BSA antibody, at 10 mM): 18%

Compound: Cc1sc[n+](CC(=O)c2cc(C(C)(C)C)c(O)c(C(C)(C)C)c2)c1C [3-(2-(3′,5′-di-tert-butyl-4′-hydroxypheny].)-2-oxoethyl]-4,5-dimethyl-thiazolium bromide]
- IC50 [2]: 160 µM

Compound: C=Cc1sc[n+](CC(=O)c2cc(C(C)(C)C)c(O)c(C(C)(C)C)c2)c1C [3-(2-(3′,5′-tert-butyl-4′-hydroxyphenyl)-2-oxoethyl)-4-methyl-5-vinyl-thiazolium bromide]
- Breaking Anti-AGE ([1]; anti-AGE antibody, at 0.3 mM): 32%
- Breaking Anti-BSA ([1]; anti-BSA antibody, at 0.3 mM): 50%

Compound: Cc1sc[n+](CC(=O)c2ccc(Br)cc2)c1C [3-(2-(4-bromophenyl]-2-oxoethyl)-4,5-dimethylthiazolium bromide]
- IC50 [2]: 2920 µM

Compound: O=C(C[n+]1ccsc1)c1ccc(Br)cc1.[Br-] [3-(2-(4^1-bromophenyl]-2-oxoethyl)-thiazolium bromide]
- Breaking Anti-AGE ([1]; anti-AGE antibody, at 30 mM): 76%
- Breaking Anti-BSA ([1]; anti-BSA antibody, at 30 mM): 25%

Compound: COC(=O)c1ccc(NC(=O)C[n+]2csc(CCO)c2C)cc1O [3-(2-(4′-carbmethoxy-3′-hydroxyanilino)-2-oxoethyl]-4-methyl-5-(2′-hydroxyethyl)-thiazolium bromide]
- Breaking Anti-AGE ([1]; anti-AGE antibody, at 10 mM): 24%
- Breaking Anti-BSA ([1]; anti-BSA antibody, at 10 mM): 18%
- IC50 [2]: 1760 µM

Compound: CCCCCc1ccc(C(=O)C[n+]2csc(CCO)c2C)cc1.[Br-] [3-(2-(4′-n-pentylphenyl)-2-oxoethyl]-4-methyl-5-(2′-hydroxyethyl)-thiazolinium]
- Relative Cross-link Inhibition ([2]; 3 mM): 52% @ 3 mM
- IC50 [2]: 1530 µM

Compound: Cc1c(CCO)sc[n+]1CC(=O)c1ccc(Br)cc1 [3-(2-(41-bromophenyl]-2-oxoethyl)-4-methyl-5-(2-hydroxyethyl)thiazolium bromide]
- IC50 [2]: 2950 µM

Compound: COC(=O)C[n+]1ccsc1.[Br-] [3-(2-Methoxy-2-oxoethyl)-thiazolium bromide]
- Breaking Anti-AGE ([1]; anti-AGE antibody, at 30 mM): 38%
- Breaking Anti-BSA ([1]; anti-BSA antibody, at 30 mM): 41%
- IC50 [2]: 250 µM

Compound: Cc1sc[n+](CC(N)=O)c1C.[Br-] [3-(2-amino-2-oxoethyl)-4,5-dimethyl-thiazolium bromide]
- Breaking Anti-AGE ([1]; anti-AGE antibody, at 30 mM): 61%
- Breaking Anti-BSA ([1]; anti-BSA antibody, at 30 mM): 16%
- IC50 [2]: 9900 µM

Compound: Cc1c(CCO)sc[n+]1CC(N)=O.[Br-] [3-(2-amino-2-oxoethyl)-4-methyl-5-(2-hydroxyethyl) thiazolium bromide]
- Breaking Anti-AGE [1, 3]: 65%
- Breaking Anti-BSA [1, 4]: 57%
- IC50 [1, 5]: 0.012 mM
- IC50 [1, 6]: 0.12 mM
- IC50 [2]: 1420 µM

Compound: Cc1c[n+](CC(N)=O)cs1 [3-(2-amino-2-oxoethyl)-5-methyl-thiazolium bromide]
- IC50 [2]: 28.9 µM

Compound: NC(=O)C[n+]1ccsc1 [3-(2-amino-2-oxoethyl)thiazolium bromide, 3-(2-amino-2-oxoethyl)-thiazolium bromide]
- IC50 [2]: 530 µM

Compound: COC(=O)C[n+]1cscc1C.[Br-] [3-(2-methoxy-2-oxoethyl)-4-methylthiazolium bromide]
- Breaking Anti-AGE ([1]; anti-AGE antibody, at 30 mM): 54%
- Breaking Anti-BSA ([1]; anti-BSA antibody, at 30 mM): 51%

Compound: CC(=O)C[n+]1ccsc1.[Cl-] [3-(2-methyl-2-oxoethyl) thiazolium chloride]
- Breaking Anti-AGE [1, 3]: 56%
- Breaking Anti-BSA [1, 4]: 93%
- IC50 [1, 5]: 0.83 mM
- IC50 [1, 6]: 0.75 mM

Compound: Cc1c[n+](CC(=O)c2ccccc2)cs1 [3-(2-phenyl-2-oxoethyl)-5-methyl-thiazolium bromide]
- IC50 [2]: 12600 µM

Compound: Cc1c(CCO)sc[n+]1Cc1c(Cl)cccc1Cl.[Cl-] [3-(2′,6′-dichlorobenzyl)-4-methyl-5-(2′-15 hydroxyethyl)-thiazolium chloride]
- Breaking Anti-AGE ([1]; anti-AGE antibody, at 10 mM): 6%
- Breaking Anti-BSA ([1]; anti-BSA antibody, at 10 mM): 27%

Compound: O=C(O)C[n+]1csc2ccccc21.[Br-] [3-(carboxymethyl)benzothiazolium bromide, 3-(carboxymethyl)-benzothiazolium bromide]
- Breaking Anti-AGE ([1]; anti-AGE antibody, at 30 mM): 63.7%
- Breaking Anti-BSA ([1]; anti-BSA antibody, at 30 mM): 17.9%

Compound: Cc1csc[n+]1CC(=O)c1cc(C(C)(C)C)c(O)c(C(C)(C)C)c1.[Br-] [3-[2-(3′,5′-di-tert-butyl-4′-hydroxyphenyl)-2-oxoethyl]-4-methyl-thiazolium bromide]
- Breaking Anti-AGE ([1]; anti-AGE antibody, at 0.3 mM): 14%
- Breaking Anti-BSA ([1]; anti-BSA antibody, at 0.3 mM): 2%

Compound: Cc1c(CCO)sc[n+]1Cc1ccccc1.[Cl-] [3-benzyl-5-(2-hydroxyethyl)-4-methyl thiazolium chloride]
- Breaking Anti-AGE ([1]; anti-AGE antibody, at 30 mM): 65%
- Breaking Anti-BSA ([1]; anti-BSA antibody, at 30 mM): 61%
- IC50 [1, 5]: 0.42 mM
- IC50 [1, 6]: 0.55 mM
